Values joined by “and” are separate entries in the source; they are usually repeats but may differ in a detail not shown here. Identical values can stand only once.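 Test compounds were applied to cells in 96-well plates for 48 hours at 5 doses. GI50 is the concentration that inhibits growth by half. TGI is the concentration that stops growth completely.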
What was measured:
Test in all cases: growth of human tumour cells (NCI), 48 h
[1] = system: SK-MEL-2 melanoma
[2] = system: NCI-H23 lung
[3] = system: NCI-H460 lung
[4] = system: HCT-15 colon
[5] = system: SF-539 CNS
[6] = system: OVCAR-5 ovarian
[7] = system: TK-10 renal
[8] = system: U251 CNS
[9] = system: SF-295 CNS
[10] = system: LOX IMVI melanoma

| SMILES | GI50 [1] | TGI [1] | TGI [2] | TGI [3] | GI50 [4] | TGI [4] | TGI [5] | GI50 [6] | TGI [6] | TGI [7] | GI50 [8] | TGI [8] | GI50 [2] | GI50 [3] | GI50 [9] | TGI [9] | GI50 [5] | GI50 [10] | TGI [10] | GI50 [7] |
| --- | --- | --- | --- | --- | --- | --- | --- | --- | --- | --- | --- | --- | --- | --- | --- | --- | --- | --- | --- | --- |
| CC1OC(O[C@@H]2C=C3CC[C@@H]4[C@H](CC[C@]5(C)[C@@H](c6ccc(=O)oc6)CC[C@]45O)[C@@]3(C)CC2)C(O)C(OC2OC(CO)C(O)C(O)C2O)C1O (stereo partly specified) | 0.000866 µM | 0.0409 µM and 0.0257 µM | 0.0236 µM | 0.00143 µM | 0.000532 µM | 0.116 µM and 0.0443 µM | 0.000699 µM | 0.000256 µM | 0.039 µM and 0.0523 µM | 0.016 µM | 0.000247 µM | 0.0176 µM and 0.0352 µM |  |  |  |  |  |  |  |  |
| COc1ccc([I+]c2ccc(OC)cc2)cc1 | 43.9 µM | > 100 µM | > 100 µM | > 100 µM | > 100 µM | > 100 µM | > 100 µM | > 60.8 µM | > 100 µM | > 100 µM | 7.58 µM | > 100 µM | 4.85 µM | 5.28 µM | 5.07 µM | > 100 µM | 11 µM | 6.05 µM | > 100 µM |  |
| COC(=O)C12Oc3ccc(-c4ccc5c(c4O)C(O)=C4C(=O)CC(C)C(O)C4(C(=O)OC)O5)c(O)c3C(O)=C1C(=O)CC(C)C2O (stereo unspecified) |  | 1.02 µM |  | > 100 µM |  | > 100 µM | 1.35 µM |  | 2.26 µM | 4.46 µM |  | 3.05 µM |  |  |  | 1.84 µM |  |  |  |  |
| O=C1C(=C([O-])c2ccccc2)C(=O)c2ccccc21.O=C1C(=C([O-])c2ccccc2)C(=O)c2ccccc21.[Ni+2] | 98 µM | > 100 µM | > 100 µM | > 100 µM | 47.2 µM | > 100 µM | > 100 µM | 13.4 µM | > 100 µM | > 100 µM | 34.5 µM | > 100 µM | 37.4 µM | 33.9 µM | 41.4 µM | > 100 µM | 59.2 µM | 34.6 µM | > 100 µM | > 100 µM |
| COc1cc2c[n+](C)c3c4cc(OC)c(OCc5ccccc5)cc4c(OCc4ccccc4)cc3c2cc1OC |  | 6.29 µM | 20.5 µM | > 100 µM |  | > 100 µM | 11.8 µM |  | > 100 µM | 79 µM |  | 12.9 µM |  |  |  | > 69.3 µM |  |  | 18 µM |  |
| O=S(O)c1cc(Cl)c(O)c(Cl)c1 |  | > 100 µM | > 100 µM | > 100 µM |  |  | > 100 µM |  | > 100 µM | > 100 µM |  | > 100 µM |  |  |  |  |  |  | > 100 µM |  |
| CC(=O)OCC1OC(N=[N+]=[N-])C(OC(C)=O)C(OC(C)=O)C1OC1OC(COC(C)=O)C(OC(C)=O)C(OC(C)=O)C1OC(C)=O (stereo unspecified) |  | > 100 µM | > 100 µM | > 100 µM |  | > 100 µM | > 100 µM |  | > 100 µM | > 100 µM |  | > 100 µM |  |  |  | > 100 µM |  |  | > 100 µM |  |
| C=C1CCOC2(C(O)C(C)(O)CO)NC(=O)C1(O)NC2=O (stereo unspecified) |  | > 100 µM | > 100 µM | > 100 µM |  | > 100 µM | > 100 µM |  | > 100 µM | > 100 µM |  | > 100 µM |  |  |  | > 100 µM |  |  | > 100 µM |  |
| COC(=O)c1c(O)ccc2c1c1c(n2Cc2cccc(C)c2)C(=O)c2ccccc2C1 |  | > 75 µM | > 75 µM | > 75 µM |  | > 75 µM | 61.4 µM |  | > 75 µM | > 75 µM |  | 66.1 µM |  |  |  | > 75 µM |  |  | 67.1 µM |  |
| C/C(=N\NC(N)=S)c1nc2ncccc2[nH]1 |  | > 100 µM |  | > 100 µM |  | > 100 µM | > 100 µM |  | > 100 µM | > 100 µM |  | > 100 µM |  |  |  | > 100 µM |  |  | > 100 µM |  |
| COc1cc(O)c(Cc2ccccc2O)c(O)c1C(=O)CCc1ccccc1 |  | 12.8 µM | 12 µM | 12.2 µM |  | 19.9 µM | 15.7 µM |  | 21.8 µM |  |  | 14.5 µM |  |  |  | 16.1 µM |  |  | 22.9 µM |  |
| Cc1cc(O)c2c(c1)C(C1c3cccc(O)c3C(=O)c3c(O)cc(C)cc31)c1cccc(O)c1C2=O (stereo unspecified) |  | 0.692 µM | 4.65 µM | 12.8 µM |  | 12.3 µM | 0.556 µM |  | 11.8 µM | 20.6 µM |  | 12.3 µM |  |  |  | 4.31 µM |  |  | 11.4 µM |  |
| Cn1c(=O)c2[nH]c(SC/C(=N/O)c3ccc(Br)cc3)nc2n(C)c1=O | 2.08 µM | 4.26 µM | 4.75 µM |  |  |  |  |  |  | 3.41 µM |  |  | 2.08 µM |  | 1.82 µM | 4.1 µM |  | 3.12 µM | > 100 µM | 1.92 µM |
| COc1ccc2c3/c(=C\c4ccc(N(C)C)cc4)c4ccccc4n3[n+](C)c2c1 |  |  | 0.722 µM | 28.8 µM | 0.475 µM | > 100 µM | 0.748 µM | 0.472 µM | 2.22 µM | 1.32 µM |  | > 100 µM | 0.0639 µM | 0.16 µM | 0.202 µM |  | 0.0409 µM | 0.094 µM | > 100 µM | 0.274 µM |

— PubChem BioAssay (NCI)
